Data reported in PMC9436924, “A gene cluster in Ginkgo biloba encodes unique multifunctional cytochrome P450s that initiate ginkgolide biosynthesis” (Nature Communications, 2022).

What was measured:
GbLPS = target: T1, GbLPS (Ginkgo biloba, UniProt Q947C4); assay: expression in tobacco leaves, GC-MS of products; type: cell-based; details: substrate made in situ with CfDXS and CfGGPPS
T1 construct: gene LPS; transiently expressed in Nicotiana benthamiana leaves, plastidial; (in yeast a truncated, codon-optimised MBP fusion was used)
T1 sequence (Q947C4 60-873): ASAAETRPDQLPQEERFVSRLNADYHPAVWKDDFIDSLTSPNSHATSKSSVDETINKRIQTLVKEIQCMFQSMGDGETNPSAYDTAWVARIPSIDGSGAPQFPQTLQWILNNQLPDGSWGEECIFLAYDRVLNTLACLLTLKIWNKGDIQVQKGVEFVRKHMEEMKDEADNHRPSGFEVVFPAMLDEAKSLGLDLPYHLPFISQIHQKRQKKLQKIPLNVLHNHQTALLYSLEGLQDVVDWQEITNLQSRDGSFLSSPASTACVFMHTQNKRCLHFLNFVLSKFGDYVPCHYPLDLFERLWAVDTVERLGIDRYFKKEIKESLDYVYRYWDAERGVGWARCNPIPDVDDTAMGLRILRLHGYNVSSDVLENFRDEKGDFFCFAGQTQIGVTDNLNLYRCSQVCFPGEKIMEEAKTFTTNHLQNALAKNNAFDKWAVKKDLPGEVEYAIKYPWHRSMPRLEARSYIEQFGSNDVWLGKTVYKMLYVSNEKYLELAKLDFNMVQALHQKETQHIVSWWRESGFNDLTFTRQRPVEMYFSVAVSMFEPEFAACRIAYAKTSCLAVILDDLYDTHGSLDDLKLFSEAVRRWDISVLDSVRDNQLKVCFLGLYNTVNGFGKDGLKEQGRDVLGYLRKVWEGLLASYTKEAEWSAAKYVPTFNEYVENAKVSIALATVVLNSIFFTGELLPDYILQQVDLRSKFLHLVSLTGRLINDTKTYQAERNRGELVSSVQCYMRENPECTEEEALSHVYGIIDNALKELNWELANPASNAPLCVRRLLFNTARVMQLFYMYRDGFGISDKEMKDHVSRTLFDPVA

GbCYP720B31 = target: T2, GbCYP720B31 (Ginkgo biloba, UniProt Z9PDJ7KIF4); assay: pathway co-expression in tobacco and yeast, LC-HRMS, NMR of product glucosides; type: cell-based; details: proposed substrate made in situ by upstream enzymes, free form not detected
T2 construct: G. biloba cDNA, gene on chromosome 4; expressed in Nicotiana benthamiana and Saccharomyces cerevisiae; GenBank numbers ON759313-ON759329 printed only as a collective set
T2 sequence (Z9PDJ7KIF4 1-483): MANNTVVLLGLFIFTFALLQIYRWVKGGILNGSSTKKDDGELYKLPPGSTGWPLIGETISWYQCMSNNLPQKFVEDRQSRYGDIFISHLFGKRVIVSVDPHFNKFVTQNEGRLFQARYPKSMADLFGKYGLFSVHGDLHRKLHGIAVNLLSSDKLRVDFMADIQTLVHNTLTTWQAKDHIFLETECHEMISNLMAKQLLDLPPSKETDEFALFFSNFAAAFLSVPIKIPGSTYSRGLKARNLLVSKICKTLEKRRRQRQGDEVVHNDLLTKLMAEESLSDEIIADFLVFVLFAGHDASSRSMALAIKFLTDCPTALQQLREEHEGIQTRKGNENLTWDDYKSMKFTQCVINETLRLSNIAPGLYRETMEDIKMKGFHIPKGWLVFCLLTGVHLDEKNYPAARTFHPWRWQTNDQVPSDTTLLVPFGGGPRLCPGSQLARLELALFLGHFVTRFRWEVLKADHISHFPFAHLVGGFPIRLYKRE

Structure (SMILES)	expression in tobacco leaves, GC-MS of products (GbLPS)	pathway co-expression in tobacco and yeast, LC-HRMS, NMR of product glucosides (GbCYP720B31)
CC(C)=CCC/C(C)=C/CC/C(C)=C/CC/C(C)=C/COP(=O)(O)OP(=O)(O)O [geranylgeranyl pyrophosphate]	levopimaradiene synthase (GbLPS) converts GGPP to diterpene hydrocarbon levopimaradiene	
CC(=CC(=O)O)C(CCc1cc(O)c(C(C)C)cc1O)C(C)(C)C (centres unmarked) [ginkgosinoic acid C]		we propose that GbCYP720B31 hydroxylates ginkgosinoic acid C at position C20
